Where two headings read alike, the source gives them in different places.
Key:
human BACE2 (1-460):Fc = molecular target: T1, human BACE2 (1-460):Fc (Homo sapiens, UniProt Q9Y5Z0); assay: BACE2 TMEM27 FRET Assay; assay type: biochemical
T1 construct: made in house; host or cells: HEK293 cells, transient transfection; purified from conditioned media by Protein A
T1 sequence (Q9Y5Z0 21-460): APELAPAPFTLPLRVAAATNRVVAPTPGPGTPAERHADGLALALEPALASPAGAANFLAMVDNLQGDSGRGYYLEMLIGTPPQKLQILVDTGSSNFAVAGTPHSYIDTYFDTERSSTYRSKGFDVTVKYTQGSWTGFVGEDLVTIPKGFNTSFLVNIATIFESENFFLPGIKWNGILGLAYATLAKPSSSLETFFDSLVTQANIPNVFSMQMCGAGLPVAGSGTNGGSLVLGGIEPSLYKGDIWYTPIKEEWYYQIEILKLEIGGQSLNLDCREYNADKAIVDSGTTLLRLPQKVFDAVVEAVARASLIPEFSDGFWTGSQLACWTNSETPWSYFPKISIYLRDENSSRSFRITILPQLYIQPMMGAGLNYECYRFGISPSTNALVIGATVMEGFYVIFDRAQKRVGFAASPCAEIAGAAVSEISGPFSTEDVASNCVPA
Procedure: (§1) To assess selectivity of BACE1 over BACE2, the test compound is evaluated in FRET assays using specific substrates for BACE1 and BACE2 as described below. For in vitro enzymatic and cellular assays, the test compound is prepared in DMSO to make up a 10 mM stock solution. The stock solution is serially diluted in DMSO to obtain a ten-point dilution curve with final compound concentrations ranging from 10 μM to 0.05 nM in a 96-well round-bottom plate before conducting the in vitro enzymatic and whole cell assays.
(§2) Human BACE1 (accession number: AF190725) and human BACE2 (accession number: AF 204944) are cloned from total brain cDNA by RT-PCR. The nucleotide sequences corresponding to amino acid sequences #1 to 460 are inserted into the cDNA encoding human IgG1 (Fc) polypeptide (Vassar et al., Science, 286, 735-742 (1999)). […]
(§3) Conditioned media of HEK293 cells transiently transfected with huBACE1:Fc or huBACE2:Fc cDNA are collected. […] The purity of the final product is assessed by electrophoresis in 4-20% Tris-Glycine SDS-PAGE. […]
Serial dilutions of test compound are prepared as described above. […] The RFU of the mixture at time 0 is recorded at excitation wavelength 430 nm and emission wavelength 535 nm. […] The RFU at the end of incubation is recorded with the same excitation and emission settings used at time 0. […]

Human BACE1(1-460):Fc = molecular target: T2, Human BACE1(1-460):Fc (Homo sapiens, UniProt P56817); assay: BACE1 FRET Assay; assay type: biochemical; conditions: purified recombinant huBACE1:Fc, FRET substrate based on APP; mean ± standard deviation of the mean, n=12
T2 construct: made in house; host or cells: HEK293 cells, transient transfection; purified from conditioned media by Protein A
T2 sequence (P56817 22-460): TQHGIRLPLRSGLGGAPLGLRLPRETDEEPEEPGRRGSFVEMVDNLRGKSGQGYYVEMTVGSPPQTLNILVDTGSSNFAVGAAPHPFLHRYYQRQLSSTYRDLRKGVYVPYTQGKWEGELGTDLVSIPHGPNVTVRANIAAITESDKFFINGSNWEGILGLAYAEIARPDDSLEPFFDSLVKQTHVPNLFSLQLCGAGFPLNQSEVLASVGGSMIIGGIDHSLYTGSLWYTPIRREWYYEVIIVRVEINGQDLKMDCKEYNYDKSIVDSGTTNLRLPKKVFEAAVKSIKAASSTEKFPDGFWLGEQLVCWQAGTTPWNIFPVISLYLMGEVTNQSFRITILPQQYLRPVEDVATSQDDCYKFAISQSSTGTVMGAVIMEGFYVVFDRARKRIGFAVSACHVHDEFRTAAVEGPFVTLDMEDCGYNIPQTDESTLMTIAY
Procedure: as §1, §2, §3
Serial dilutions of the test compound are prepared as described above. […] The RFU of the mixture at time 0 is recorded at excitation wavelength 355 nm and emission wavelength 460 nm, after brief mixing on a plate shaker. […] The RFU at the end of incubation is recorded with the same excitation and emission settings used at time 0. […]

[1] = molecular target: T3, BACE1 activity in SH-SY5YAPP695Wt cells (Homo sapiens, UniProt P56817); assay: SH-SY5YAPP695Wt Whole Cell Assay (Abeta ELISA); assay type: cell-based; conditions: 24 hours incubation, conditioned media, n=4
T3 construct: endogenous in cells; host or cells: SH-SY5Y (ATCC CRL2266) stably expressing human APP695Wt
T3 sequence (P56817 46-501): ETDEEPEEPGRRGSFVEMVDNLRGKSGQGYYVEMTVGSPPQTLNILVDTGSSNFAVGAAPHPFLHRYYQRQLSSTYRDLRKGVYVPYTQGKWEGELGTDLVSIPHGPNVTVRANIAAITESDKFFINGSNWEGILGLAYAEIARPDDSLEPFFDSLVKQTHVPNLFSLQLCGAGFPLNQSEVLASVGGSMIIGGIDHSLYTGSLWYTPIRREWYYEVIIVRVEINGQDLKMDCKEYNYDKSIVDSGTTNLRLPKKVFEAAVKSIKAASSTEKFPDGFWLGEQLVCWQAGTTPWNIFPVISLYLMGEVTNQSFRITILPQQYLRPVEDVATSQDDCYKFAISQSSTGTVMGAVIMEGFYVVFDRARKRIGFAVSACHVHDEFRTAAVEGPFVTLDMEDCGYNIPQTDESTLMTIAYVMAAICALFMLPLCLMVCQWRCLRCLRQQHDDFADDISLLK
Procedure: as §1
The routine whole cell assay for the measurement of inhibition of BACE1 activity utilizes the human neuroblastoma cell line SH-SY5Y (ATCC Accession No. CRL2266) stably expressing a human APP695Wt cDNA. Cells are routinely used up to passage number 6 and then discarded.
SH-SY5YAPP695Wt cells are plated in 96 well tissue culture plates at 5.0×10^4 cells/well in 200 μL culture media (50% MEM/EBSS and Ham's F12, 1× each sodium pyruvate, non-essential amino acids and NaHCO3 containing 10% FBS). The following day, media is removed from the cells, fresh media added then incubated at 37° C. for 24 hours in the presence/absence of test compound at the desired concentration range.
At the end of the incubation, conditioned media are analyzed for evidence of beta-secretase activity by analysis of Abeta peptides 1-40 and 1-42 by specific sandwich ELISAs. […]

beta-secretase = assay: In vivo inhibition of beta-secretase, cannulated beagle dog model (Abeta 1-x ELISA); conditions: male beagle dogs, 1.0 mg/kg p.o.
Procedure: (§4) Several animal models, including mouse, guinea pig, dog, and monkey, may be used to screen for inhibition of beta-secretase activity in vivo following compound treatment. Herein, we conduct central pharmacology studies in a cannulated beagle dog model. In this model, a cohort of male beagle dogs are implanted with a cannula in the lumbar spine region and threaded up towards the cervical spine. This model allows multiple CSF collections throughout a single 48-72 hour study period through a subcutaneous lumbar port attached to the spinal catheter. As long as the cannula remains patent, additional CSF pharmacology studies can be conducted within the same cohort of dogs. Blood samples are processed to obtain plasma, and then plasma and CSF samples are aliquoted to allow determination of test compound and Abeta CSF concentrations.
In this study, six male beagle dogs are dosed p.o. with 1.0 mg/kg Example 1 in a 0.5 M, phosphate buffer (pH=2.0) formulation and blood (0.5, 1, 2, 3, 6, 9, 12, 24, and 48 hours) and CSF (3, 6, 9, 24, and 48 hours) are collected. Plasma and CSF compound concentrations are determined by LC/MS/MS methods. Plasma and CSF are also analyzed for Abeta 1-x. “Abeta 1-x” as used herein refers to the sum of Abeta species that begin with residue 1 and end with a C-terminus greater than residue 28. This detects the majority of Abeta species and is often called “total Abeta”. Total Abeta peptides (Abeta 1-x) levels are measured by a sandwich ELISA, using monoclonal 266 as a capture antibody and biotinylated 3D6 as reporting antibody. (See May, et al., Journal of Neuroscience, 31, 16507-16516 (2011)).

[2] = Plasma and CSF compound exposure in cannulated beagle dogs (LC/MS/MS); assay type: in vivo; conditions: dog, po, male beagle dogs, 1.0 mg/kg p.o.
Procedure: as §4
In this study, six male beagle dogs are dosed p.o. with 1.0 mg/kg Example 1 in a 0.5 M, phosphate buffer (pH=2.0) formulation and blood (0.5, 1, 2, 3, 6, 9, 12, 24, and 48 hours) and CSF (3, 6, 9, 24, and 48 hours) are collected. Plasma and CSF compound concentrations are determined by LC/MS/MS methods. Plasma and CSF are also analyzed for Abeta 1-x. […] Total Abeta peptides (Abeta 1-x) levels are measured by a sandwich ELISA, using monoclonal 266 as a capture antibody and biotinylated 3D6 as reporting antibody. […]

- IC50 (human BACE2 (1-460):Fc; huBACE2:Fc, TMEM27 LucY FRET substrate, mean ± standard deviation of the mean, n=6): 602 nM
- BACE1 selectivity over BACE2 (BACE2 IC50 / BACE1 IC50) (human BACE2 (1-460):Fc; selectivity for BACE1 over BACE2): approximately 50 fold
- IC50 (Human BACE1(1-460):Fc): 11.9 nM
- IC50 ([1]; read-out: IC50 for SH-SY5YAPP695Wt A-beta (1-40) ELISA): 1.03 nM
- IC50 ([1]; read-out: IC50 for SH-SY5YAPP695Wt A-beta (1-42) ELISA): 1.28 nM
- Kp ([2]; CSF / free plasma, free fraction by equilibrium dialysis, read-out: ratio of CSF AUC to free plasma AUC): 0.17
- AUC ([2]; plasma, read-out: total plasma AUC exposure): 7.96 µM·h
Compound: CC(F)(F)[C@H]1OC[C@]2(c3cc(NC(=O)c4ccc(C(F)(F)F)cn4)ccc3F)N=C(N)OC[C@H]12 [Example 1, N-[3-[(4aR,5S,7aS)-2-Amino-5-(1,1-difluoroethyl)-4,4a,5,7-tetrahydrofuro[3,4-d][1,3]oxazin-7a-yl]-4-fluoro-phenyl]-5-(trifluoromethyl)pyridine-2-carboxamide]
- reduction of CSF Abeta 1-x levels relative to baseline (beta-secretase; 24 hours): approximately 65%
- reduction in plasma levels of Abeta 1-x at nadir (beta-secretase; 48 hour post-dosing period): up to 80%
- reduction of CSF Abeta 1-x levels relative to baseline (beta-secretase; 48 hours): ~55%
